The values that follow are results of earlier work, collected in patent US20130177904A1, “ARNT ISOFORM 3 AS A PREDICTOR OF AMINOFLAVONE RESPONSIVENESS IN CANCER CELLS” (UNIVERSITY OF MARYLAND, BALTIMORE, priority 2010, published 2013).

Each structure is given as a SMILES string.

In the series the test system is nonspecific plasma esterases. Conditions: by nonspecific plasma esterases; cited from earlier work.

Regarding `CS(=O)(=O)O.Cc1c(F)c(N)c2c(=O)cc(-c3ccc(NC(=O)[C@@H](N)CCCCN)c(F)c3)oc2c1F` [AFP-464], the “conversion to AF in plasma” value is “rapid conversion to AF”.
